Results reported in patent publication EP3807270B1, “NOVEL HETEROARYL HETEROCYCLYL COMPOUNDS FOR THE TREATMENT OF AUTOIMMUNE DISEASE” (F. Hoffmann-La Roche AG, priority 2018, dated 2019).

biological target: T1, hTLR7 (Homo sapiens, UniProt Q9NYK1); assay: HEK293-Blue-hTLR-7 cells assay (SEAP reporter, R848 stimulation); format: cell-based; parameters: host or cells: HEK293 (HEK-Blue); conditions: HEK293-Blue-hTLR7 cells, R848, 20 hrs; read-out: HEK/hTLR7 IC50
T1 sequence (Q9NYK1 27-1049): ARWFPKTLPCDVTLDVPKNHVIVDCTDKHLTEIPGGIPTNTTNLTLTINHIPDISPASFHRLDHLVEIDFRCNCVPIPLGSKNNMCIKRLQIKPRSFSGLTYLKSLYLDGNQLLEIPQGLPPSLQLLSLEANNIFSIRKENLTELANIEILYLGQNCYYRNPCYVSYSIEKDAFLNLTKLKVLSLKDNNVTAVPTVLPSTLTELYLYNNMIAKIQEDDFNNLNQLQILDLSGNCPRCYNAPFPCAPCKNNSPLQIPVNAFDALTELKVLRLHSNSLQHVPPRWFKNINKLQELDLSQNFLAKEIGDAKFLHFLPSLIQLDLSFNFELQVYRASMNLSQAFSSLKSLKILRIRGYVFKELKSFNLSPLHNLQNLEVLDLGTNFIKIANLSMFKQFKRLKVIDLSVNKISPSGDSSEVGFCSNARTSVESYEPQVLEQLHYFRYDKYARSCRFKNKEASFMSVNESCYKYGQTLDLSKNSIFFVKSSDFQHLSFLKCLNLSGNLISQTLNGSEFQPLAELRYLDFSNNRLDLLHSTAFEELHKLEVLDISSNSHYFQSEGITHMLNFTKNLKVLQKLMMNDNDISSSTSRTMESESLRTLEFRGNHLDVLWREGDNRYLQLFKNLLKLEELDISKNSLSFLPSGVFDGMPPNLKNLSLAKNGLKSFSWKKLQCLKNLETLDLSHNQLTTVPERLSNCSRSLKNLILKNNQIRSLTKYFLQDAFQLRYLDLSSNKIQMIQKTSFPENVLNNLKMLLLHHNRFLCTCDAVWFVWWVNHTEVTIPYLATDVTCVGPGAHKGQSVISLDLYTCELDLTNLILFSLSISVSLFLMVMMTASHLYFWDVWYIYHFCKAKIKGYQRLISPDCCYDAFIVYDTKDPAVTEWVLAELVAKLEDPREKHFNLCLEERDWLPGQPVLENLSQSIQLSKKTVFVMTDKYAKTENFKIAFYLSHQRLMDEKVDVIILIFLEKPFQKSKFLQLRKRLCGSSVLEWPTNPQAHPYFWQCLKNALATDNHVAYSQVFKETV
Description: A stable HEK293-Blue-hTLR-7 cell line was purchased from InvivoGen (Cat.#: hkb-htlr7, San Diego, California, USA). These cells were originally designed for studying the stimulation of human TLR7 by monitoring the activation of NF-κB. A SEAP (secreted embryonic alkaline phosphatase) reporter gene was placed under the control of the IFN-β minimal promoter fused to five NF-κB and AP-1-binding sites. The SEAP was induced by activating NF-xB and AP-1 via stimulating HEK-Blue hTT,R7 cells with TLR7 ligands. Therefore, the reporter expression was declined by TLR7 antagonist under the stimulation of a ligand, such as R848 (Resiquimod), for incubation of 20 hrs. The cell culture supernatant SEAP reporter activity was determined using QUANTI-Blue™ kit (Cat.#: rep-qb1, Invivogen, San Diego, Ca, USA) at a wavelength of 640 nm, a detection medium that turns purple or blue in the presence of alkaline phosphatase.
HEK293-Blue-hTLR7 cells were incubated at a density of 250,000-450,000 cells/mL in a volume of 170 µL in a 96-well plate in Dulbecco's Modified Eagle's medium (DMEM) containing 4.5 g/L glucose, 50 U/mL penicillin, […], […], 2 mM L-glutamine, 10% (v/v) heat-inactivated fetal bovine serum with addition of 20 µL test compound in a serial dilution in the presence of final DMSO at 1% and 10 µL of 20uM R848 in above DMEM, perform incubation under 37 °C in a CO2 incubator for 20 hrs. Then 20 µL of the supernatant from each well was incubated with 180 µL Quanti-blue substrate solution at 37 °C for 2 hrs and the absorbance was read at 620-655 nm using a spectrophotometer. The signaling pathway that TLR7 activation leads to downstream NF-xB activation has been widely accepted, and therefore similar reporter assay was modified for evaluating TLR7 antagonist.

IC50 [µM] | Structure (SMILES)
0.005 | C[C@@H]1CN(c2ccc(C#N)c3ncccc23)C[C@H](CN2CC3(C2)CN(c2ccc4c(n2)CCNC4)CCO3)O1 [Example 49, 5-[(2R,6S)-2-methyl-6-[[8-(5,6,7,8-tetrahydro-1,6-naphthyridin-2-yl)-5-oxa-2,8-diazaspiro[3.5]nonan-2-yl]methyl]morpholin-4-yl]quinoline-8-carbonitrile]
0.011 | C[C@@H]1CN(c2ccc(C#N)c3ncccc23)C[C@H](CN2CCN(c3cnc4c(n3)CCNC4)CC2)O1 [Example 17, 5-[(2R,6S)-2-methyl-6-[[4-(5,6,7,8-tetrahydropyrido[3,4-b]pyrazin-2-yl)piperazin-1-yl]methyl]morpholin-4-yl]quinoline-8-carbonitrile]
0.011 | C[C@@H]1CN(c2ccc(C#N)c3ncccc23)C[C@H](CN2CC3(C2)CN(c2ccc4c(c2)CCNC4)CCO3)O1 [Example 44, 5-[(2R,6S)-2-methyl-6-[[8-(1,2,3,4-tetrahydroisoquinolin-6-yl)-5-oxa-2,8-diazaspiro[3.5]nonan-2-yl]methyl]morpholin-4-yl]quinoline-8-carbonitrile]
0.061 | C[C@@H]1CN(c2ccc(C#N)c3ncccc23)C[C@H](CN2CCN(c3ccc4c(n3)CCNC4)C[C@@H](O)C2)O1 (single isomer, unassigned) [Example 35B]
0.004 | C[C@@H]1CN(c2ccc(C#N)c3ncccc23)C[C@H](CN2C[C@H]3CN(c4ccc5c(n4)CCNC5)CC[C@H]32)O1 (single isomer, unassigned) [Example 55]

The next lines start with the molecule.

Structure (SMILES) | IC50 [µM]
C[C@@H]1CN(c2ccc(C#N)c3ncccc23)C[C@H](CNC2CN(c3cnc4c(c3)CNC4)C2)O1 [Example 43, 5-[(2S,6R)-2-[[[1-(6,7-dihydro-5H-pyrrolo[3,4-b]pyridin-3-yl)azetidin-3-yl]amino]methyl]-6-methyl-morpholin-4-yl]quinoline-8-carbonitrile] | 0.13
C[C@@H]1Cc2cc(N3CCN(C[C@H]4CN(c5ccc(C#N)c6nccnc56)C[C@@H](C)O4)CC3)ncc2CN1 (single isomer, unassigned) [Example 83] | 0.006
C[C@@H]1CN(c2ccc(C#N)c3nccnc23)C[C@H](CN2CCN(c3ccc4c(n3)CN[C@H]4C)CC2)O1 (single isomer, unassigned) [Example 78] | 0.005
C[C@@H]1CN(c2ccc(C#N)c3ncccc23)C[C@H](CN2CCN(c3cccc4c3CNC4)CC2)O1 [Example 2, 5-[(2S,6R)-2-[(4-isoindolin-4-ylpiperazin-1-yl)methyl]-6-methyl-morpholin-4-yl] quinoline-8-carbonitrile] | 0.004
C[C@@H]1CN(c2ccc(C#N)c3ncccc23)C[C@H](CN2CCN(c3cnc4c(c3)CN[C@@H]4C)CC2)O1 (single isomer, unassigned) [Example 68] | 0.013
C[C@@H]1CN(c2ccc(C#N)c3ncccc23)C[C@H](CN2CCC(Nc3ncc4c(n3)CNC4)C2)O1 (stereo partly drawn) [Example 32, 5-[(2S,6R)-2-[[3-(6,7-dihydro-5H-pyrrolo[3,4-d]pyrimidin-2-ylamino)pyrrolidin-1-yl]methyl]-6-methyl-morpholin-4-yl]quinoline-8-carbonitrile] | 0.069
C[C@@H]1CN(c2ccc(C#N)c3ncccc23)C[C@H](CN2CCN(c3ccc4c(c3)C(O)CN(C)C4)CC2)O1 (stereo partly drawn) [Example 59, 5-[(2S,6R)-2-[[4-(4-hydroxy-2-methyl-3,4-dihydro-1H-isoquinolin-6-yl)piperazin-1-yl]methyl]-6-methyl-morpholin-4-yl]quinoline-8-carbonitrile] | 0.041
Cc1nc2c(nc1N1CCN(C[C@H]3CN(c4ccc(C#N)c5ncccc45)C[C@@H](C)O3)CC1)CCNC2 [Example 60, 5-[(2R,6S)-2-methyl-6-[[4-(3-methyl-5,6,7,8-tetrahydropyrido[3,4-b]pyrazin-2-yl)piperazin-1-yl]methyl]morpholin-4-yl]quinoline-8-carbonitrile] | 0.011
